Results on seven molecules are retold here after patent publication US10316000B2, “Coupled recognition/detection system for in vivo and in vitro use” (Cornell University, priority 2009, dated 2019).

The conditions of series [1]: cited from earlier work; for emission maxima: literature values.
Series [2] in a line: Fluorescence of aptamer-DFHBI complexes. It counts as biochemical. The following applies: unchanged between unbound and bound fluorophore. From the text: The addition of the fluoro groups appeared to cause a slight blue shift in the fluorescence with excitation and emission maxima at 460 nm and 500 nm, respectively (FIG. 12A). […] Thus, further characterization was only carried out on these two brightest clones. […] This increased brightness derived mainly from an increase in the quantum yield from 0.08 for DMHBI-RNA complexes to over 0.6 for DFHBI-RNA complexes. The extinction coefficient for DFHBI remained unchanged between unbound and bound fluorophore: 26,000 M^−1cm^−1.
Equimolar solutions of 24-1-DFHBI complex and eGFP were prepared to measure their relative fluorescence intensity. […] Mg^2+ ion requirement, on the other hand, is much greater for 24-1 and 24-2 than for 13-2 (FIG. 12D). Both 24-1 and 24-2 are optimally fluorescent at 25 mM MgCl2 with only a subtle decrease when the concentration is dropped to 5 mM (the concentration used for SELEX). However, dropping MgCl2 concentration from 5 mM to a more physiological concentration of 0.5 mM results in a 50% drop in fluorescence for both aptamers. Further decreasing the MgCl2 concentration completely abolishes 24-1 fluorescence at ˜0.01 mM, while 24-2 levels out at ˜45% intensity at 0.01 mM MgCl2.

A short description of series [3]: Phenolic pKa and phenol/phenolate absorbance of fluorophores. It counts as physicochemical. Particulars: for pKa: phenolic proton of free fluorophore. The protocol:
The pKa of DFHBI was calculated using the presence of the distinct phenol and phenolate absorbance peaks. […] This dramatic reduction in […] would ensure that a majority of fluorophore molecules would now be in the phenolate form at physiological pH.

The nature of series [4]: Fluorescence of free fluorophore (ethanol glass, glycerol viscosity). It counts as physicochemical. The text has this: In GFP, the chromophore is held inside the protein β-barrel structure and rigidified by direct interactions with over a dozen amino acid residues (FIG. 1C). This inflexible positioning of the chromophore by the protein is the reason for its large fluorescent quantum yield. Similarly, the synthetic GFP chromophores 4-hydroxybenzilidene-1,2-dimethyl-imidazol-5-one (“HBDI”) is capable of bright fluorescence only when rigidified by solidified solvents (Niwa et al., “Chemical Nature of the Light Emitter of the Aequorea Green Fluorescent Protein,” Proc. Nat'l Acad. Sci. USA 93:13617-13622 (1996), which is hereby incorporated by reference in its entirety). […] As an initial experiment DMHBI was first dissolved in ethanol and frozen in liquid nitrogen to create an ethanol glass matrix.
To more precisely determine the effect of immobilization on DMHBI fluorescence, 10 μM DMHBI in aqueous buffer was prepared and its fluorescence spectrum was measured in increasing concentrations of glycerol. Because glycerol is known to affect the viscosity of aqueous solutions in a predictable manner, the effect of increasing viscosity on DMHBI fluorescence can be readily measured. An increase in fluorescence intensity with increasing concentrations of glycerol was observed (FIG. 2B).
This is in agreement with previously reported data of the fluorescence spectrum of synthetic GFP chromophore, which is incapable of the excited-state proton transfer reaction that is responsible for green emission spectra found in the GFP protein. […] The reason for this is that the phenolic moiety of the chromophore remains protonated at neutral pH and in the context of the original protein. Deprotonation to the phenolate results in an excitation maxima at ˜475 nm.
Additionally, DFHBI was nonfluorescent when administered to HEK 293 cells, proving its utility for methods involving live cells.

The test system of another series is HEK 293 cells. Nature of the series: Non-specific fluorescence of dyes in HEK 293 cells. Particulars: for non-specific fluorescence in cells: 10 μM, epifluorescent microscope. It counts as cell-based. The method, then:
Previous studies to utilize conditionally fluorescent RNA binding dyes had focused on triphenylmethane scaffold dyes such as malachite green. However, these studies were halted by the discovery that many of these conditionally fluorescent dyes could interact with cellular components causing the cells to nonspecifically fluoresce. To determine whether the fluorophores of the present invention would be nonspecifically fluorescent in cells, HEK 293 cells were incubated with 10 μM DMHBI and visualized using an epifluorescent microscope.

Series [5] in a line: Dissociation constant of aptamer-DMHBI complexes by fluorescence titration. It counts as binding. The text has this:
The first step in characterizing the interaction between fluorescence-inducing aptamers of DMHBI was to determine their binding affinities. Because binding of the RNA to DMHBI results in fluorescence, the dissociation constant (Kd) was obtained by titrating increasing amounts of DMHBI to a solution of the aptamer. To correct for any increases in DMHBI background fluorescence, measurements of DMHBI alone at the same concentrations were taken and subtracted from the binding data. These measurements were then used to extrapolate RNA-fluorophore dissociation constants. DMHBI bound to both 3-6 and 13-2 with roughly equal dissociation constants of 500 nM (FIG. 5A).

A further series has as its system aptamer 13-2. The series is described as follows: Quantum yield, extinction coefficient and brightness of DMHBI alone and with aptamer 13-2. It counts as physicochemical. The protocol:
Lucifer Yellow and Cascade Yellow, two fluorophores with known quantum yields, were used as standards and the relative slope changes in the curve depicting absorbance vs. total fluorescence were compared. Values were calculated for DMHBI alone and DMHBI with aptamer 13-2 to identify the underlying reason for fluorescence increase. […] Quantum yield, however, increased enormously from 0.0006 for DMHBI alone to 0.08 for the aptamer-DMHBI complex—an over 100-fold increase. Total brightness, measured as the product of extinction coefficient and quantum yield, went from 0.008 to 1.23 (150-fold). […] More importantly, the fold-increases in both quantum yield and brightness are more than sufficient for detection of the aptamer-fluorophore complex.

Series [6] can be described thus: ATP-dependent fluorescent sensor from aptamer 13-2 with DMHBI. It counts as biochemical. The text has this:
FIGS. 22A-B illustrate the design of a fluorescent ATP sensor using aptamer 13-2. FIG. 22A illustrates how aptamer 13-2 (nt 4-60 of SEQ ID NO: 3, structure from mFOLD, left) was modified by fusing it to a previously-described ATP-aptamer (see structure on right). An unstable stem was fused from the ATP aptamer to 13-2 at the stem A entry point, generating the sensor of SEQ ID NO: 62. FIG. 22B confirms that the fused aptamer construct can be used as an ATP-dependent fluorescent sensor. In the absence of ATP, there is minimal fluorescence, even in the presence of DMHBI (lower curve). However, after addition of 1 mM ATP, the fluorescence increases nearly 30-fold (upper curve).
The mutagenesis studies described in Example 8 confirmed that stem loop A of aptamer 13-2 (see FIG. 22A) could be mutated as long as a stem-forming sequence was retained. Using the same approach identified in Example 17 (for aptamer 24-1), stem-loop A was used as an entry point for introducing an ATP aptamer along with stem destabilization.

Setting [7] is: highly viscous solutions, pH 7.4.

Entries after “also recorded” stand apart in the source; their conditions may differ.

Regarding “4-hydroxybenzylidene-1-methyl-2-penta-1,3-dien-1-yl-imidazolinone [reference compound]”, the emission maxima in series [1] is listed as 523 nm.

Take `CC1=N/C(=C\c2cc(F)c(O)c(F)c2)C(=O)N1C` [DFHBI, 4-(3,5-difluoro-4-hydroxybenzylidene)-1,2-dimethyl-imidazol-5-one]: the extinction coefficient in series [2] was 26,000 M^−1cm^−1. Besides, in series [3], the “absorbance maximum, phenol” value is 363 nm; the “absorbance maximum, phenolate” value is 420 nm; the pKa is about 6. In series [4], the “fluorescence in ethanol glass and at high glycerol concentrations” value is on record as “robustly fluorescent”; the “fluorescence in non-viscous solutions” value is listed as “negligible fluorescence”. In addition, the “fluorescence when administered to cells” value with HEK 293 cells was “nonfluorescent”.

On to `COc1cc(/C=C2\N=C(C)N(C)C2=O)cc(OC)c1O` [DMHBI, 4-(4-hydroxy-3,5-dimethoxybenzylidene)-1,2-dimethyl-imidazol-5-one], for which, in series [5] (aptamer not named, read-out: Kd of the complex (RNA-bound DMHBI)), the Kd is 500 nM. In addition, the “dissociation τ1/2” value in series [5] (inferred from Kd assuming diffusion-limited association rates) was under 0.1 s. The fraction deprotonated in series [3] (pH 8) is listed as about 50%. In addition, the fluorescence in glycerol entry in series [4] (10 μM in aqueous buffer, 20% glycerol) was “very limited fluorescence”. Further, the “fluorescence in ethanol glass” value in series [4] (frozen in liquid nitrogen, 77° K) was “dramatic fluorescent enhancement; also recorded: brilliantly fluorescent”. Further, in series [4] (setting [7]), the emission peak turned out to be 460 nm and the excitation peak was 400 nm. In addition, the fluorescence in ethanol entry in series [4] (room temperature) is reported as “nonfluorescent; also recorded: non-fluorescent”. In the series on HEK 293 cells, the “non-specific fluorescence in cells” value is reported as “no increase in background fluorescence; also recorded: No non-specific fluorescence”. In addition, in the series on aptamer 13-2 (DMHBI alone), the quantum yield was determined as 0.0006; the “total brightness (product of extinction coefficient and quantum yield)” value is reported as 0.008. Also, in the series with aptamer 13-2 (DMHBI bound by aptamer 13-2), the molar extinction coefficient is 15,358 M^−1cm^−1. Besides, in the series with aptamer 13-2 (aptamer-DMHBI complex), the quantum yield is 0.08; the “total brightness (product of extinction coefficient and quantum yield)” value came to 1.23. In the series with aptamer 13-2 (complex vs DMHBI alone), the “increase in quantum yield” value is given as “over 100 fold” and the “increase in total brightness” value was determined as 150 fold. The molar extinction coefficient in the series on aptamer 13-2 (unbound DMHBI) is on record as 13,164 M^−1cm^−1.

Turning to `CN(C)c1ccc(C(=C2C=CC(=[N+](C)C)C=C2)c2ccccc2)cc1` [malachite green, reference compound], the “non-specific fluorescence in cells” value with HEK 293 cells is listed as “intensely fluorescent; also recorded: cells turn fluorescent”.

For `CC1=N/C(=C\c2ccccc2O)C(=O)N1C` [o-HBDI, 4-(2-hydroxybenzylidene)-1,2-dimethyl-imidazol-5-one], the emission maxima in series [1] was 605 nm. Also, the pKa in series [3] is about 10.

B1: DsRed: bright red fluorescent protein from coral (Discosoma spp.) (protein, UniProt Q9U6Y8 1-225, looked up)
Red fluorescent protein …: MRSSKNVIKEFMRFKVRMEGTVNGHEFEIEGEGEGRPYEGHNTVKLKVTKGGPLPFAWDILSPQFQYGSKVYVKHPADIPDYKKLSFPEGFKWERVMNFEDGGVVTVTQDSSLQDGCFIYKVKFIGVNFPSDGPVMQKKTMGWEASTERLYPRDGVLKGEIHKALKLKDGGHYLVEFKSIYMAKKPVQLPGYYYVDSKLDITSHNEDYTIVEQYERTEGRHHLFL
With B1, in series [1] (literature value), the excitation maxima was 558 nm. The emission maxima in series [1] is 583 nm.

B2: sensor of SEQ ID NO: 62: aptamer 13-2 fused via modified stem A to an ATP-binding aptamer, used with DMHBI (nucleic acid)
chain: CUAUUUCUGGAGGGGCGCUACUGUGUGGGAAGAAACUGUGGCACUUCGGUGCCAGCGUAUGGGUGGUUGGGUGCGGUCGGAGAUAGCUCGAGCAAUGC
modifications: listed as RNA, further chemistry not given here
On to B2, for which the “fluorescence increase after addition of ATP” value in series [6] (1 mM ATP, DMHBI present) is recorded as about 30 fold. Besides, the “molar fluorescence intensity relative to 13-2 parent aptamer” value in series [6] (ATP-bound) is listed as about 20%.

The term pKa denotes the pH at which an ionisable group is half protonated. Lower therefore signals a stronger acid or weaker base. As a reminder, the Kd is the equilibrium constant for the complex coming apart.
